In patent publication US6849607B2, “Galectin recognized photosensitizers for photodynamic therapy” (Health Research, Inc., priority 2001, dated 2005):

Experiments:
[1] = test system: radiation induced fibrosarcoma (RIF) tumor cell; assay: In vitro photosensitizing activity in RIF tumor cells (MTT); assay type: cell-based; conditions: 2.0 μM, light dose of 4 J/cm2
Experimental: Both cell lines are known to have some expression for Galectin-1 (Sacchettini, J. C., Baum, L. G. and Brewer, C. F., Multivalent Protein-carbohydrate Interactions. A New Paradiagm for Super Molecular Assembly and Signal Transduction, Biochemistry, 40:3009-3015, 2001). The Molt-4 cells were grown in RPMI 1640 5% FCS (Fetal calf serum) in 100% humidity with 5% CO2. Cells were transferred to phenol red free (PRF) RPMI 1640 media with 1% FCS and plated at 2.5×10^4 cells/well. After 3 hours incubation in the dark, the cells were washed once with PBS and re-suspended in prf RPMI 1640 with 1% FCS. These cells were then illuminated with a 1000W Quartz Halogen Lamp with IR and bandpass dichroic filters to allow light between 400 nm-700 nm, at a dose rate of 16 mW/cm^2 at 695 nm. The RIF tumor cells were grown in alpha-DMEM with 10% fetal calf serum, penicillin and streptomycin. Cells were maintained in 5% CO2, 95% air and 100% humidity. For determining the PDT efficacy, these cells were plated in 96-well plates and a density of 1×10^4 cells well in complete media. After overnight incubation to allow the cells to attach the photosensitizers 14 were individually added at variable concentrations. After a 3 hr incubation in the dark at 37° C., the cells were washed once with PBS, then irradiated with the same light source as above (Molt-4 procedure), and the optimal cell kill was obtained at a concentration of 1.0 μM. After PDT the cells were washed once and placed in complete media and incubated for 48 hrs. […] The 96-well plate was read on a microtiter plate reader (Miles Inc. Titertek Multiscan Plus MK II) at an absorbance of 560 nm. […]

Molt-4 cells = assay: Cellular localization by fluorescence microscopy in Molt-4 cells; assay type: cell-based, human
Experimental: For investigating the difference in sites of localization between the photosensitizers with and without carbohydrate moieties, the fluorescence light microscopy experiments were performed in Molt-4 and RIF tumor cell lines. In a typical experiment, cells were imaged at 100× on an inverted fluorescence microscope (Carl Zeiss Inc. Axiovert 35.W.Germany) with a charged-coupled device camera (Dage-MTI, model 104722-02). Images were captured and processed by computer using Image-1 image processing software (Universal Imaging Corp., version 4.0, WestChester, Pa.). The photosensitizer fluorescence was assessed by using 530-585 nm excitation and 615 nm long-pass filter to measure emission while 338-378 nm excitation for DPH, and a 450 nm emission filter for emission (400 nm dichroic). […] In addition, […]1-(4-trimethylammonium)-6-phenyl-1,3,5-hexatriene (TMA-DPH), a hydrophobic fluorescent probe which interacts with living cells by instantaneous incorporation into plasma membrane and becomes fluorescent (Illinger, D., and Kuhry, J. G., The Kinetic Aspects of Intracellular Fluorescence Labeling with TMA-DPH Support the Maturation Model for Endocytosis in L929 Cells, The Journal of Cell Biology, 125:783-794, 1994), was added for the last 5 min of the incubation, cells were washed once with PBS and transferred to a microscope slide for imaging. […]

Row | Molecule | cell kill [1] | fluorescence in presence of free lactose (Molt-4 cells; lactose 100 μM) | cellular localization (Molt-4 cells; incubated for 3 hrs)
1 | C=C(C=CCO[C@@H]1O[C@H](CO)[C@@H](O[C@@H]2O[C@H](CO)[C@H](O)[C@H](O)[C@H]2O)[C@H](O)[C@H]1O)CN1C(=O)c2c3nc(cc4[nH]c(cc5nc(cc6[nH]c2c(c6C)C1=O)C(CC)=C5C)c(CC)c4C)C(C)C3CCC(=O)OC (mixture of isomers) [4a, Lactose-Chlorin conjugate joined with diene linkage] | 100% | No fluorescence was observed | –
2 | Mesopurpurin-18-N-methyl-(2′-butadiene)imide [1a] | approximately 40% | – | intracellular localization
